Entries after “also recorded” stand apart in the source; their conditions may differ.

The values that follow come from paper PMC10726367 (Journal of Medicinal Chemistry, 2023).

Holding throughout (assay type): cell-based
The target in series [1] is T1, RyR2 (Mus musculus, UniProt E9Q401).
T1 construct: expressed in transfected cells; host or cells: HEK-293 cells stably expressing R-CEPIA1er with doxycycline-inducible WT RyR2
As to the kind of experiment: Time-lapse [Ca2+]ER assay (RyR2 R-CEPIA1er assay) in HEK-293 cells with inducible WT RyR2. Conditions: for RyR2 effect class: 25 μM (S107 1 mM per Figure 2); for RyR2 effect class / EC50: HEK-293 RyR2 R-CEPIA1er cells; for EC50: value, interval; for effect on [Ca2+]ER / R-CEPIA1er fluorescence (F/F0): 25 μM, vs 0.1 v/v% DMSO. The source says:
To assess the functional potency of novel agents for modulating RyR2 channel activity, we measured changes in Ca^2+ levels in ER of HEK-293 cells with inducible expression of wild-type RyR2 (WT RyR2).[33],[34] Because the expression of WT RyR2 introduces an additional spontaneous Ca^2+ leak from the ER, these cells are suitable for our purpose of testing potential RyR2 stabilizers.[35] The cells additionally stably express the Ca^2+ fluorescence indicator R-CEPIA1er, which is a genetically encoded sensor protein of Ca^2+ in the ER (the cell line was a gift from T. Murayama, Department of Pharmacology, Juntendo University School of Medicine, Tokyo, Japan).[36]
The addition of these compounds, which are known to inhibit excessive cardiac RyR2 activity, should reduce Ca^2+ leak from the ER, thus increasing the R-CEPIA1er fluorescence.
The fluorescence plate reader [Ca^2+]ER assay was performed according to the slightly modified protocol of Murayama and Kurebayashi.[36] […] After the cells were inducted with doxycycline for 24 h, changes in ER calcium concentrations [Ca^2+]ER were measured on a multiwell plate reader TECAN Spark 20 M at 37 °C. The 1000 × stock solutions of the test compounds were prepared in DMSO. Briefly, the culture medium was removed and 100 μL of Tyrode’s solution containing 2 mM CaCl2 was added to the cells. The time courses were recorded in each well. Fluorescence was evoked by a 560 nm excitation wavelength and collected in a bottom-read mode at 610 nm. Data was recorded every 10 s, exposure −20 flashes, excitation bandwidth −20 nm, emission bandwidth −20 nm. 100 μL of 0–100 μM solution of test compound in Tyrode’s solution containing 2 mM CaCl2 was injected in each well (speed 100 μL/s) at the 90 s time point. […] The 0.1 v/v% DMSO and 2 mM CaCl2 Tyrode’s solution was used as a control.
The dose–response curves were calculated using the software package GraphPad Prism version 8.3.1. (GraphPad Software, Inc.). All data are presented as mean ± SD in three independent experiments. Y = bottom + (top – bottom)/(1 + 10^((LogEC50 – X) × HillSlope)) was used, where HillSlope describes the steepness of the curve, and top and bottom are plateaus in the units of the Y-axis.

Series [2] addresses T2, SERCA2a (Mus musculus, UniProt O55143).
T2 construct: host or cells: HL-1 cells
As to the kind of experiment: Caffeine-induced Ca2+ release assay in HL-1 cells (FLIPR Calcium 6). Conditions: for SERCA2a HL-1 effect class: 10 μM (25 μM for 11d), caffeine assay; for effect on caffeine-induced Ca2+ release (in words): 2 h incubation at various concentrations. The source says:
It is known that caffeine stimulates the release of calcium from intracellular stores in cells by acting as a RyR activator.[39],[40] The binding site for caffeine is located on the cytosolic side of the protein between the C-terminal and the S2S3 domain.[41] When caffeine binds to RyR2, it interacts with specific amino acids on the protein, which causes conformational changes in the protein’s structure.[42] This opens the RyR2 channel pore, enabling the mass release of calcium ions from the SR. We investigated the effect of caffeine-induced Ca^2+ release in HL-1 cells treated with cytosolic Ca^2+ indicator FLIPR Calcium 6 (Molecular Devices). The HL-1 cell line is an immortalized mouse cardiomyocyte cell line commonly used to study the effects of various substances on cell function.[43] If the tested compound modulates SERCA2a activation, it will cause an increase in Ca^2+ concentration in the SR and the effect of a fixed dose of caffeine on SR Ca^2+ release will be potentiated by increasing doses of a proposed SERCA activator.[26] As a positive control, we used CDN1163, a small-molecule SERCA activator, which is at present in a clinical trial due to its potential therapeutic use for certain cardiac conditions.[27]
HL-1 cells (50,000 per well) were cultivated for 24 h in black-walled, clear-bottom 96-well microplates (Corning, Amsterdam, The Netherlands) covered with fibronectin/gelatin (Merck KGaA, Darmstadt, Germany) in a humidified incubator at 37 °C and 5% CO2.
Changes in Ca^2+ concentration were measured on a multiwell plate reader TECAN Spark 20 M using a FLIPR 6 Calcium Assay Kit from Molecular Devices (Molecular Devices LLC, München, Germany) at 37 °C. The 1000 × stock solutions of the test compounds were prepared in DMSO. A 100 μL solution of test compound in Tyrode’s solution containing FLIPR Calcium 6 dye was incubated for 2 h at 37 °C and 5% CO2 in a humidified incubator. The time courses were recorded in each well. Fluorescence was evoked at 485 nm excitation wavelength and read out in a bottom-read mode at 525 nm. Data were recorded every 2 s, exposure −20 flashes, excitation bandwidth −10 nm, emission bandwidth −15 nm. To initiate Ca^2+ influx, 25 μL of 50 mM caffeine solution in Tyrode’s solution containing 2 mM CaCl2 was injected in each well (speed 100 μL/s) at the 10 s time point, resulting in 10 mM final concentration in the well. The differences between the caffeine-induced peak minus basal fluorescence, ΔFCaff, were taken into account for the analysis. The Tyrode’s solution +0.1 v/v% DMSO was used as a control. The dose–response curves were calculated using the software package GraphPad Prism version 8.3.1. All data are presented as mean ± SD from eight independent experiments. Y = bottom + (top – bottom)/(1 + 10^((LogEC50 – X) × HillSlope)) was used, where HillSlope describes the steepness of the curve and top and bottom are plateaus in the units of the Y axis.

Series [3] can be described thus: CytoTox-Glo Cytotoxicity Assay. The conditions noted are these: mouse; HL-1 cells, 100 μM solutions, 24 h incubation. As for the experimental part: Cell viability was assessed using the CytoTox-Glo Cytotoxicity Assay according to the manufacturing procedure (Promega GmbH). Briefly, HL-1 cells were cultivated for 24 h in black-walled, clear-bottom 96-well microplates (Corning) covered with fibronectin in DMEM, containing different concentrations of the tested compound (10,000 cells/well). Luminescence of a luminogenic peptide substrate was measured before and after the addition of the lysis reagent (digitonin). The viable cell contribution was determined by a subtractive method. 0.1% DMSO-treated cells were taken as a control.

T1 sequence (E9Q401 whole entry): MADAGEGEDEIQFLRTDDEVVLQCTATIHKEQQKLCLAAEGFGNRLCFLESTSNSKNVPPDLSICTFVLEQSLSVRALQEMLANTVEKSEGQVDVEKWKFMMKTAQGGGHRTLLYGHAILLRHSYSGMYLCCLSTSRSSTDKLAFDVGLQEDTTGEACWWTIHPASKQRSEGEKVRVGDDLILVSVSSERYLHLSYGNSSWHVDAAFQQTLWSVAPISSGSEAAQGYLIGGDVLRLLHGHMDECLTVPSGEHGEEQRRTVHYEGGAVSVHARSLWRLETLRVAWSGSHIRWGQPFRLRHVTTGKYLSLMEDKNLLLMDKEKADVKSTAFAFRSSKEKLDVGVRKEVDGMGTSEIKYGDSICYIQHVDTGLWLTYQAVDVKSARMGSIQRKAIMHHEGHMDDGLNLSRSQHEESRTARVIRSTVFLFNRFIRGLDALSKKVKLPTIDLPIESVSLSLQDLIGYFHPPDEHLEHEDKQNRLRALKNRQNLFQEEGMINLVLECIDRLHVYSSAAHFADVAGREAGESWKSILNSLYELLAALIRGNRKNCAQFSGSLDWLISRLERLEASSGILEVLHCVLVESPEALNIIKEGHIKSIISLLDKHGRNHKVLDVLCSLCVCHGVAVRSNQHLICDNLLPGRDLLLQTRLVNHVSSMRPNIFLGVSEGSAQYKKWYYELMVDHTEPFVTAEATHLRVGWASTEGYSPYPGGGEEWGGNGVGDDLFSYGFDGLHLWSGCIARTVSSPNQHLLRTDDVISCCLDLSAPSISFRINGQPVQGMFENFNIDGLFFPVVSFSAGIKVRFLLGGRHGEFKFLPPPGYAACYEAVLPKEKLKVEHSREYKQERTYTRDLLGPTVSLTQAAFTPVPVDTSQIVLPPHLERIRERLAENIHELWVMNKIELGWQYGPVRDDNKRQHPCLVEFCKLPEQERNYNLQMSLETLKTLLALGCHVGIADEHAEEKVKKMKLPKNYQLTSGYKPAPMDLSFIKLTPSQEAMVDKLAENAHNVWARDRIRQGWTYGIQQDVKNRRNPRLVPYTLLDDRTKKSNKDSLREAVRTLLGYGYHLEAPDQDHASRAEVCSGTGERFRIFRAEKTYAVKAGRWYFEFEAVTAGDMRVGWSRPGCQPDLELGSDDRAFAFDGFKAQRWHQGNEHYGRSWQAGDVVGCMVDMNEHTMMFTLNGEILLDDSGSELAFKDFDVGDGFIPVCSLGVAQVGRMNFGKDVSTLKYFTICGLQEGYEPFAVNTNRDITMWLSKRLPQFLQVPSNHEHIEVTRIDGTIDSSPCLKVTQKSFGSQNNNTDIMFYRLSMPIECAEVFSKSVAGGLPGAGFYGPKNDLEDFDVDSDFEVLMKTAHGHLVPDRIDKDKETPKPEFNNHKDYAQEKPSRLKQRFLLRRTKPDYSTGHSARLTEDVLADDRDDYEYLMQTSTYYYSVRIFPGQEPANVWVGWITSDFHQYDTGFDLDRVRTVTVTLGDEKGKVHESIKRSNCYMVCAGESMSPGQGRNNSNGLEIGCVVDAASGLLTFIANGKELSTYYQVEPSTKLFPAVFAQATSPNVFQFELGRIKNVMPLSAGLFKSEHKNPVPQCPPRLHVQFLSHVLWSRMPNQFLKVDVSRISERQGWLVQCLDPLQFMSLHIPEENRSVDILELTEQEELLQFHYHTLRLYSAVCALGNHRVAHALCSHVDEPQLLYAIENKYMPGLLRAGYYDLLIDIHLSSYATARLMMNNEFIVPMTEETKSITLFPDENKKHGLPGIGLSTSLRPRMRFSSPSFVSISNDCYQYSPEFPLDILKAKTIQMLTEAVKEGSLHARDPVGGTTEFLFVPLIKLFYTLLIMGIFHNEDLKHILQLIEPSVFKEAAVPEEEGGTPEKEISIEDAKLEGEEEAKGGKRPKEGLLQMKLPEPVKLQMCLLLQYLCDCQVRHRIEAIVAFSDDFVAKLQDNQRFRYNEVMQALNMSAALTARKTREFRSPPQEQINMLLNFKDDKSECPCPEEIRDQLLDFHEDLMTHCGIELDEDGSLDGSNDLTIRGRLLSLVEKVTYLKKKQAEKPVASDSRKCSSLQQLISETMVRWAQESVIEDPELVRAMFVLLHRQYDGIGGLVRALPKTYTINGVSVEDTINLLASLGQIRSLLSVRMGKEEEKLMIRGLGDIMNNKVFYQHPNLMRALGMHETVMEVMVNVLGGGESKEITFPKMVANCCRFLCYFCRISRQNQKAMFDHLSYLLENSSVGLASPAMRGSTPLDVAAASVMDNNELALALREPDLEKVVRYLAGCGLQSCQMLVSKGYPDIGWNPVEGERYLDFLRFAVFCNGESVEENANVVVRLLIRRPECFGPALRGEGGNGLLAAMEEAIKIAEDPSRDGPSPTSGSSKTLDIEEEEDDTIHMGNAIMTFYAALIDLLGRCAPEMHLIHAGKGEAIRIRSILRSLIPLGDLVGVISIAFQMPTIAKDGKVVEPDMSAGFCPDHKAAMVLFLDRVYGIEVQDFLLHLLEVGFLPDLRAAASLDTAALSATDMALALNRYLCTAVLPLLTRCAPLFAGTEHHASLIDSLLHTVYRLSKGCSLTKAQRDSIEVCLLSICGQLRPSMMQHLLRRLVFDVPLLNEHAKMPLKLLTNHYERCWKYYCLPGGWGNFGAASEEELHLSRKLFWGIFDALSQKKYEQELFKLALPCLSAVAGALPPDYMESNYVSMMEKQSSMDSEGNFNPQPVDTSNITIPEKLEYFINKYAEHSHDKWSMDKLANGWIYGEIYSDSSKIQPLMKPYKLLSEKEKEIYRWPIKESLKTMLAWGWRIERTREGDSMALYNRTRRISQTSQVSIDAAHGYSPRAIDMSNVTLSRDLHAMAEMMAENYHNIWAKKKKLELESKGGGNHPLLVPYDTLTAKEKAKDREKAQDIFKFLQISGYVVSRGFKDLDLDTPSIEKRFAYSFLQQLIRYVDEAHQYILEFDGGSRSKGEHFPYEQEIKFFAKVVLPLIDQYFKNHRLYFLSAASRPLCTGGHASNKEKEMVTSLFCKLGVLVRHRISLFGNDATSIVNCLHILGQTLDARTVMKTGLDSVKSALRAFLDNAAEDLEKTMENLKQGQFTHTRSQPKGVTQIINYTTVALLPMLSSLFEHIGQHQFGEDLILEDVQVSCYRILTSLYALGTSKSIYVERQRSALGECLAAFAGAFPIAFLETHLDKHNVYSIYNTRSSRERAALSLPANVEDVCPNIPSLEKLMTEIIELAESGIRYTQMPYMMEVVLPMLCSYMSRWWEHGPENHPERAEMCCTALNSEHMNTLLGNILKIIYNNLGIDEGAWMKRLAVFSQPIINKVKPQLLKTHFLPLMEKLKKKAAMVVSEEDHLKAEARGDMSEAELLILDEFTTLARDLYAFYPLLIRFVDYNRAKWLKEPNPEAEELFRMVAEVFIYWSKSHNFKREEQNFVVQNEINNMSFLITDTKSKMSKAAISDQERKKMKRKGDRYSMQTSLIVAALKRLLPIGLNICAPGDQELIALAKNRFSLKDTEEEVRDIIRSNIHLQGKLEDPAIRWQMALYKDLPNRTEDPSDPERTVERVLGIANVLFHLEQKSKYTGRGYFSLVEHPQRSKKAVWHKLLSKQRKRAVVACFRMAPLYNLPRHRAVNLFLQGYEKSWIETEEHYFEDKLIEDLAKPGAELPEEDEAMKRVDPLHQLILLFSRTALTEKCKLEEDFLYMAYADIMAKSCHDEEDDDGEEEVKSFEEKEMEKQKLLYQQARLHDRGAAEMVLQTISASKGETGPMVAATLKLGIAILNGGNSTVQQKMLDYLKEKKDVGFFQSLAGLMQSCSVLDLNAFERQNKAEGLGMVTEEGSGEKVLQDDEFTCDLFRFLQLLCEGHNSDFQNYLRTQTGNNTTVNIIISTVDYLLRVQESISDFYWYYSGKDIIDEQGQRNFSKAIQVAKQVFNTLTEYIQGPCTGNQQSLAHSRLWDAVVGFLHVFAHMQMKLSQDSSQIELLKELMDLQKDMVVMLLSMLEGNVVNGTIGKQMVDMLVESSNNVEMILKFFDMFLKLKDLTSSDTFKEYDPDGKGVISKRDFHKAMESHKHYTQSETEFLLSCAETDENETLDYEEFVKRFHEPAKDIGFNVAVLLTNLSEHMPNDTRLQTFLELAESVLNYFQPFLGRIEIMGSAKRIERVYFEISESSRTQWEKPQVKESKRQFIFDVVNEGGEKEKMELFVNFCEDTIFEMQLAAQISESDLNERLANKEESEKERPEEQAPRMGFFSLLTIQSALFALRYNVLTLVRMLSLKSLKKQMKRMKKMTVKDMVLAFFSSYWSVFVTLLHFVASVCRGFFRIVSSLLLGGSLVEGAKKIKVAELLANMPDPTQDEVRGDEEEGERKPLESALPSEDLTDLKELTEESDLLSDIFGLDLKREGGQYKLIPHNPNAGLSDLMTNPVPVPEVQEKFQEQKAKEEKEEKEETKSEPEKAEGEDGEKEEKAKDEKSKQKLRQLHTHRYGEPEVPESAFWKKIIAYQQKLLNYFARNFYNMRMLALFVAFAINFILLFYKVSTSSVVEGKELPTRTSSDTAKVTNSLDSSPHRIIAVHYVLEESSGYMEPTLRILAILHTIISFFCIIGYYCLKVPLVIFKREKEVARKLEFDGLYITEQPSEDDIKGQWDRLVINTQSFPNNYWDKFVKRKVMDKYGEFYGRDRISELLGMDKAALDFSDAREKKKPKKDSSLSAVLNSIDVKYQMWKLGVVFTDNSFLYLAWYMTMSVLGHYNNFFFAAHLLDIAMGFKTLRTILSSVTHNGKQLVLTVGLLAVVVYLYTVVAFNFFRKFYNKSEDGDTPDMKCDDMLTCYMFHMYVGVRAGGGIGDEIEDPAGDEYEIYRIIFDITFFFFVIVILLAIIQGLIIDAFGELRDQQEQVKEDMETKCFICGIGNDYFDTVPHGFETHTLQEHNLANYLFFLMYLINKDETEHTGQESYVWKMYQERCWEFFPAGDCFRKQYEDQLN

For the molecule `COc1ccc2c(c1)CN(CCCCN(CCCCC1(O)CC1)CCCCC1(O)CC1)CCS2` [12a, 1,1′-(((4-(7-Methoxy-2,3-dihydrobenzo[1,4-f]thiazepin-4(5H)-yl)butyl)azanediyl)bis(butane-4,1-diyl))bis(cyclopropan-1-ol)], in series [1], the RyR2 effect class entry was “+++”. Also, the “dose response of F/F0 ([Ca2+]ER)” value in series [1] (concentration range 10^–11 to 10^–4 M) is on record as “most pronounced effect of all of the other compounds”. Moreover, the “SERCA2a HL-1 effect class” value in series [2] is listed as “++”. Also, the concentration giving a half-maximal response (EC50) in series [2] (HL-1 cells, 10 mM caffeine, value, interval) was determined as 9200 nM. The molecule further came in with a viability at 24 h, 100 μM in series [3] of 80%.
On to `COc1ccc(SCCCNCCCCC2(O)CC2)cc1` [11c, 1-(4-((3-((4-Methoxyphenyl)thio)propyl)amino)butyl)cyclopropan-1-ol], for which, in series [1], the RyR2 effect class result was “++” and the EC50 was determined as 10.2 nM. The “SERCA2a HL-1 effect class” value in series [2] is reported as “++”. Further, in series [3], the viability at 24 h, 100 μM turned out to be 73%.
`COc1ccc2c(c1)CN(CCCCC1(O)CC1)CCS2` [11d, 1-(4-(7-Methoxy-2,3-dihydrobenzo[1,4-f]thiazepin-4(5H)-yl)butyl)cyclopropan-1-ol]: in series [1], the “effect on [Ca2+]ER / R-CEPIA1er fluorescence (F/F0)” value is “no significant RyR2-stabilizing effect”. Moreover, the “SERCA2a HL-1 effect class” value in series [2] is “+”. The “effect on caffeine-induced Ca2+ release (in words)” value (“effect … (in words)” below) in series [2] (HL-1 cells, 10 mM caffeine) is “least efficacious; also recorded: no saturation effect at concentrations up to 50 μM; also recorded: slight”. In addition, in series [3], the viability at 24 h, 100 μM is 95%.
Take `COc1ccc(OCCCNCCCCC2(O)CC2)cc1` [11b, 1-(4-((3-(4-Methoxyphenoxy)propyl)amino)butyl)cyclopropan-1-ol]: in series [1], the RyR2 effect class entry is “+++” and the EC50 turned out to be 81.5 nM. In series [2], the “SERCA2a HL-1 effect class” value was “++”. Further, the viability at 24 h, 100 μM in series [3] was 100%.
Turning to `COc1ccc2c(c1)CN(CCCCNCCCCC1(O)CC1)CCS2` [11a, 1-(4-((4-(7-Methoxy-2,3-dihydrobenzo[1,4-f]thiazepin-4(5H)-yl)butyl)amino)butyl)cyclopropan-1-ol], in series [1], the RyR2 effect class entry was “++”. In addition, in series [2], the “SERCA2a HL-1 effect class” value was “+”. Also, the “effect … (in words)” value in series [2] (HL-1 cells, 10 mM caffeine) is “most potent”. Moreover, the viability at 24 h, 100 μM in series [3] is 84%.
Regarding `COc1ccc2c(c1)CN(Cc1ccc(C(=O)O)cc1)CCS2` [ARM210, reference compound], in series [1], the RyR2 effect class entry is recorded as “++” and the “effect on [Ca2+]ER / R-CEPIA1er fluorescence (F/F0)” value is “significantly increased [Ca^2+]ER”. For the same molecule, the “SERCA2a HL-1 effect class” value in series [2] is listed as “+”. Also, in series [2] (HL-1 cells, 10 mM caffeine), the “effect … (in words)” value was “clear concentration-dependent effect”. The viability at 24 h, 100 μM in series [3] was determined as 90%.
For the molecule `COc1ccc(SCCCN(CCCCC2(O)CC2)CCCCC2(O)CC2)cc1` [12c, 1,1′-(((3-((4-Methoxyphenyl)thio)propyl)azanediyl)bis(butane-4,1-diyl))bis(cyclopropan-1-ol)], in series [1], the RyR2 effect class result was “+” and a half-maximal effect (EC50) was put at 18.6 nM. Further, the “SERCA2a HL-1 effect class” value in series [2] is “+++ and ++”. The “effect … (in words)” value in series [2] (HL-1 cells, 10 mM caffeine) was “most efficacious; also recorded: stronger activating effect on caffeine-induced Ca^2+ release at concentrations above 10 μM”. Moreover, the viability at 24 h, 100 μM in series [3] came to 90%.

What is called EC50 is the concentration giving half of the maximal effect. For orientation: viability means the share of living cells, or the viability signal relative to a control. Low values mean a greater loss of cells, high ones better survival.
